Experimental data taken from patent publication US5227375A, “Aromatase inhibitors” (Endorecherche, Inc., priority 1990, dated 1993).

Target: T1, placental aromatase (Homo sapiens, UniProt P11511)
T1 construct: Microsomal aromatase was obtained from human placenta; from tissue; host or cells: human placenta microsomes
T1 sequence (P11511 1-503): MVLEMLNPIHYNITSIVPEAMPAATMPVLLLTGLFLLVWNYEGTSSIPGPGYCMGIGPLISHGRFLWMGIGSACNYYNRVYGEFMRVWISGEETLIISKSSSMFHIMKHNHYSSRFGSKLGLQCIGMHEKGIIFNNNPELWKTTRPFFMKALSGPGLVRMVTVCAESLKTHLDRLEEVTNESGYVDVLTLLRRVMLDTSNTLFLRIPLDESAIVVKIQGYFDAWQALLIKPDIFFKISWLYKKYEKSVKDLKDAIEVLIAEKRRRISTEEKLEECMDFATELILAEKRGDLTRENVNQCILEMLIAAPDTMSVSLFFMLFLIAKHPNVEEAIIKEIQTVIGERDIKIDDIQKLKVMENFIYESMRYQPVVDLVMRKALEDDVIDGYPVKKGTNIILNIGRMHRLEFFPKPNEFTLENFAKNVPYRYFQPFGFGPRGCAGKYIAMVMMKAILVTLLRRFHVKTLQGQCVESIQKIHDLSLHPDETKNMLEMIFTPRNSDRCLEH
Experiment: Inhibition of placental aromatase activity (tritiated water release from [3H]androstenedione; modified Thompson and Siiteri assay)
Type: biochemical
Conditions: for aromatase inhibitory activity (in words): qualitative statement
Protocol: Microsomal aromatase was obtained from human placenta. A reaction vessel was prepared containing microsomes (0.124 mg protein/ml), NADPH (0.625 mM), [^3 H]androstenedione (0.33 μM) and increasing concentrations of the potential inhibitor being tested in buffer (800 μl) (0.1M KH2 PO4, pH 7.5). The conversion of androstenedione to estrone was allowed to proceed at 37° C. for 30 min and stopped by addition of 200 μl of charcoal suspension (25 mg/ml) in the same buffer. After centrifugation, tritiated water contained in 100 μl of supernatant was counted. The amount of tritiated water is proportional to the amount of transformed [^3 H] androstenedione.

Row | Structure (SMILES) | Ki [nM] | aromatase inhibitory activity (in words)
1 | C=CC[C@@H]1CC2=CC(=O)CC[C@]2(C)[C@H]2CC[C@]3(C)C(=O)CC[C@H]3[C@H]12 [EM 173, 7α-allyl-4-androsten-3,17-dione] | 200 | showed aromatase inhibitory activity
2 | C=CC[C@@H]1C[C@@H]2CC(=O)CC[C@]2(C)[C@H]2CC[C@]3(C)C(=O)CC[C@H]3[C@H]12 [EM 176, 7α-allyl-5β-androstan-3,17-dione] | 900 | showed aromatase inhibitory activity
3 | C=CC[C@@H]1C[C@H]2CC(=O)CC[C@]2(C)[C@H]2CC[C@]3(C)C(=O)CC[C@H]3[C@H]12 [EM 198, 7α-allyl-5α-androstan-3,17-dione] | 600 | showed aromatase inhibitory activity
